Test results: patent publication US5840936A, “Aminosterol compounds useful as inhibitors of the sodium/proton exchanger (NHE)” (priority 1995, dated 1998)
Entries after “also recorded” stand apart in the source; their conditions may differ.

What was measured:
[1] = tested on: Xenopus tadpoles, stage 59-60; assay: Xenopus tadpole assay; settings: for Tadpole assay, observed effects: 10 μg/ml; for Pharmacologic similarity in tadpole assay: in vivo
[2] = tested on: chick embryo vitelline capillaries; assay: Chick embryo vitelline capillary regression assay; assay type: in vivo; design: key to Vitelline capillary regression: +: Vascular reactivity; 0: No vascular reactivity; +/-: Equivocal reactivity
Experimental: Using the chick embryo vitelline capillaries assay, compounds were tested for their ability to induce capillary regression. Each compound was applied in 0.1 ml of 15% Ficol 400 and PBS onto the embryo, and vascular regression was assessed after 60 minutes.
The 3-day chick embryo consists of an embryonic disc from which numerous vessels emerge and return, forming a "FIG. 8"-shaped structure--the embryo in the center with vascular loops extending outward over both poles. […] Following a lag period of around 15 minutes, the constriction of continuity between capillary and secondary vessels, generally on the "venous" side, was observed. Continued pulsatile blood flow progressed, resulting in a "swelling" of the blind tube, followed by a pinching off of the remaining connection and formation of an enclosed vascular sac resembling a "blood island." This process progressed until only the largest vessels remained intact.

[3] = Fasting blood glucose in mice; assay type: in vivo, male CD-1 mice
Experimental: To study the effect of steroid administrator or the NHE responsible for secretion of insulin, several of the aminosterols from shark liver were administered to fasting mice. Male CD-1 mice were assigned to one of four treatment groups. Whole blood glucose was tested using glucometer (Lifescan Glucometer II and One Touch test strips). Statistical analysis was via one-way analysis of variance (ANOVA) followed by subsequent Bonferonni's t-test.

NHE3 = settings: cited from earlier work
[4] = tested on: L1210 lymphoblastic leukemia; assay: Mouse model of L1210 leukemia; settings: mouse, in vivo
Description: C57B mice were inoculated with L1210 lymphoblastic leukemia cells at an inoculum that causes leukemia in 100% of animals.

HM = HM MTT assay; assay type: cell-based; settings: Table II; read-out: HM MTT assay, Minimum Effective Concentration
NHE1 = settings: cited from earlier work
NHE2 = settings: cited from earlier work

## CC(COS(=O)(=O)O)C(=O)CC[C@@H](C)[C@H]1CC[C@H]2[C@@H]3[C@H](O)C[C@H]4C[C@@H](NCCCNCCCCN)CC[C@]4(C)[C@H]3CC[C@]12C (single isomer, unassigned) [Compound 1360]
[1]
  Tadpole assay, observed effects: Swelling and lysis of certain erythrocytes occurred; also recorded: extensive vasocclusion occurred within 60 minutes throughout the tail
[2]; 1 μg applied
  Vitelline capillary regression: 0
[2]; 3- to 5-day chick embryo
  Effect on chick embryo vessels: the blood circulating through the embryonic vessels exhibited a brighter red color, reflecting a higher degree of oxygenation

## CC(C)C(CO)(CC[C@@H](C)[C@H]1CC[C@H]2[C@@H]3[C@H](O)C[C@H]4C[C@@H](NCCCNCCCCN)CC[C@]4(C)[C@H]3CC[C@]12C)OS(=O)(=O)O (single isomer, unassigned) [Compound 1437]
[3]; i.v., 1436 in D5W, 1437 in water
  Hyperglycemia: caused hyperglycemia in mice
[3]; total dose 20 mg/kg i.v. (2 × 10 mg/kg), 30 min. after 2d dose
  Fasting Blood Glucose Mean ± SEM: 82 ± 15.3 mg/dL
[1]
  Tadpole assay, observed effects: Epithelium covering the embryonic portions of the animal, such as the tail and antennae, began to slough off in sheets; also recorded: the larval skin was observed to shed off in a sheet

## N=C(N)NC(=O)c1nc(Cl)c(N)nc1N [Amiloride]
NHE3
  Ki: 100 µM

## N.N.[Cl][Pt][Cl] [Cisplatin, reference compound]
[4]
  Hematological profile: profound anemia by day 28

## CC(C)CCC[C@@H](C)[C@H]1CC[C@H]2[C@@H]3CC[C@H]4C[C@@H](NCCCNCCCCN)CC[C@]4(C)[C@H]3CC[C@]12C [Compound 303]
[2]; 1 μg applied
  Vitelline capillary regression: 0

## C[C@H](CCC(=O)O)[C@H]1CC[C@H]2[C@@H]3CC[C@H]4C[C@H](NCCCNCCCCN)CC[C@]4(C)[C@H]3CC[C@]12C [Compound 318]
[2]; 1 μg applied
  Vitelline capillary regression: 0

## CC(C)CCC[C@@H](C)[C@H]1CC[C@H]2[C@@H]3[C@H](O)C[C@H]4C[C@@H](N)CC[C@]4(C)[C@H]3CC[C@]12C [Compound 364]
[2]; 0.001 μg applied
  Vitelline capillary regression: 0
[2]; 0.01 μg applied
  Vitelline capillary regression: 0
[2]; 0.1 μg applied
  Vitelline capillary regression: 0
[2]; 1 μg applied
  Vitelline capillary regression: +
[2]; 10 μg applied
  Vitelline capillary regression: +
[2]; Table II
  Chick embryo diss. assay, Minimum Effective Concentration: 1 µg

## CC(C)CCC[C@@H](C)[C@H]1CC[C@H]2[C@@H]3[C@H](O)C[C@H]4C[C@H](NCCCNCCCCN)CC[C@]4(C)[C@H]3CC[C@]12C [Compound 370]
[1]
  Pharmacologic similarity in tadpole assay: pharmacologic activity similar to that seen for FX 3

## CC(C)CCC[C@@H](C)[C@H]1CC[C@H]2[C@@H]3[C@H](O)C[C@H]4C[C@@H](NCCCNCCCCN)CC[C@]4(C)[C@H]3CC[C@]12C [Compound 371]
[1]
  Pharmacologic similarity in tadpole assay: effects like those produced by compound 1436
[2]; 0.001 μg applied
  Vitelline capillary regression: 0
[2]; 0.01 μg applied
  Vitelline capillary regression: 0
[2]; 0.1 μg applied
  Vitelline capillary regression: 0
[2]; 1 μg applied
  Vitelline capillary regression: +/-
[2]; 10 μg applied
  Vitelline capillary regression: +

## C[C@H](CCC(=O)O)[C@H]1CC[C@H]2[C@@H]3[C@H](O)C[C@H]4C[C@@H](NCCCNCCCCN)CC[C@]4(C)[C@H]3CC[C@]12C [Compound 381]
[2]; 1 μg applied
  Vitelline capillary regression: 0

## C[C@H](CCC(=O)O)[C@H]1CC[C@H]2[C@@H]3[C@H](O)C[C@H]4C[C@H](NCCCNCCCCN)CC[C@]4(C)[C@H]3CC[C@]12C [Compound 382]
[2]; 0.001 μg applied
  Vitelline capillary regression: 0
[2]; 0.01 μg applied
  Vitelline capillary regression: 0
[2]; 0.1 μg applied
  Vitelline capillary regression: 0
[2]; 1 μg applied
  Vitelline capillary regression: +
[2]; 10 μg applied
  Vitelline capillary regression: +

## COC(=O)CC[C@@H](C)[C@H]1CC[C@H]2[C@@H]3[C@H](O)C[C@H]4C[C@@H](NCCCNCCCCNCCCN)CC[C@]4(C)[C@H]3CC[C@]12C [Compound 396]
[2]; 0.001 μg applied
  Vitelline capillary regression: 0
[2]; 0.01 μg applied
  Vitelline capillary regression: 0
[2]; 0.1 μg applied
  Vitelline capillary regression: 0
[2]; 1 μg applied
  Vitelline capillary regression: +

## COC(=O)CC[C@@H](C)[C@H]1CC[C@H]2[C@@H]3[C@H](O)C[C@@H]4C[C@@H](NCCN)CC[C@]4(C)[C@H]3CC[C@]12C [Compound 409]
[1]
  Pharmacologic similarity in tadpole assay: functionally similar to compound 1437
[2]; 1 μg applied
  Vitelline capillary regression: 0

## COC(=O)CC[C@@H](C)[C@H]1CC[C@H]2[C@@H]3[C@H](O)C[C@@H]4C[C@H](NCCN)CC[C@]4(C)[C@H]3CC[C@]12C [Compound 410]
[1]
  Pharmacologic similarity in tadpole assay: functionally similar to compound 1437
HM
  minimal effective concentration: 2.6 µg/mL
[2]; 0.001 μg applied
  Vitelline capillary regression: 0
[2]; 0.01 μg applied
  Vitelline capillary regression: +/-
[2]; 0.1 μg applied
  Vitelline capillary regression: +/-
[2]; 1 μg applied
  Vitelline capillary regression: +

## COC(=O)CC[C@@H](C)[C@H]1CC[C@H]2[C@@H]3[C@H](O)C[C@@H]4C[C@@H](NCCCNCCCCNCCCN)CC[C@]4(C)[C@H]3CC[C@]12C [Compound 411]
[2]; 0.001 μg applied
  Vitelline capillary regression: 0
[2]; 0.01 μg applied
  Vitelline capillary regression: 0
[2]; 0.1 μg applied
  Vitelline capillary regression: 0
[2]; 1 μg applied
  Vitelline capillary regression: +/-

## C[C@H](CCC(=O)O)[C@H]1CC[C@H]2[C@@H]3[C@H](O)C[C@@H]4C[C@H](NCCCNCCCCNCCCN)CC[C@]4(C)[C@H]3CC[C@]12C [Compound 412]
[1]
  Pharmacologic similarity in tadpole assay: pharmacologic activity similar to that seen for FX 3
HM
  minimal effective concentration: 18.1 µg/mL
[2]; 0.001 μg applied
  Vitelline capillary regression: 0
[2]; 0.01 μg applied
  Vitelline capillary regression: 0
[2]; 0.1 μg applied
  Vitelline capillary regression: 0
[2]; 1 μg applied
  Vitelline capillary regression: +

## C[C@H](CCC(=O)O)[C@H]1CC[C@H]2[C@@H]3[C@H](O)C[C@@H]4C[C@@H](NCCCNCCCCNCCCN)CC[C@]4(C)[C@H]3CC[C@]12C [Compound 413]
[1]
  Pharmacologic similarity in tadpole assay: effects like those produced by compound 1436
[2]; 1 μg applied
  Vitelline capillary regression: 0

## C[C@H](CCC(=O)O)[C@H]1CC[C@H]2[C@@H]3[C@H](O)C[C@@H]4C[C@H](NCCN)CC[C@]4(C)[C@H]3CC[C@]12C [Compound 414]
[1]
  Pharmacologic similarity in tadpole assay: potencies comparable to that of Fraction 1
[2]; 1 μg applied
  Vitelline capillary regression: 0

## C[C@H](CCC(=O)O)[C@H]1CC[C@H]2[C@@H]3[C@H](O)C[C@@H]4C[C@@H](NCCN)CC[C@]4(C)[C@H]3CC[C@]12C [Compound 415]
[2]; 0.001 μg applied
  Vitelline capillary regression: 0
[2]; 0.01 μg applied
  Vitelline capillary regression: +
[2]; 0.1 μg applied
  Vitelline capillary regression: +
[2]; 1 μg applied
  Vitelline capillary regression: +

## COC(=O)CC[C@@H](C)[C@H]1CC[C@H]2[C@@H]3CC[C@@H]4C[C@H](NCCN)CC[C@]4(C)[C@H]3C[C@H](O)[C@]12C [Compound 416]
[1]
  Pharmacologic similarity in tadpole assay: functionally similar to compound 1437
HM
  minimal effective concentration: 2.4 µg/mL

## COC(=O)CC[C@@H](C)[C@H]1CC[C@H]2[C@@H]3C[C@@H](O)[C@H]4C[C@H](NCCN)CC[C@]4(C)[C@H]3CC[C@]12C [Compound 431]
[1]
  Pharmacologic similarity in tadpole assay: functionally similar to compound 1437

## COC(=O)CC[C@@H](C)[C@H]1CC[C@H]2[C@@H]3C[C@@H](O)[C@H]4C[C@@H](NCCN)CC[C@]4(C)[C@H]3CC[C@]12C [Compound 432]
[1]
  Pharmacologic similarity in tadpole assay: functionally similar to compound 1437

## C[C@H](CCC(=O)O)[C@H]1CC[C@H]2[C@@H]3C[C@@H](O)[C@H]4C[C@@H](NCCN)CC[C@]4(C)[C@H]3CC[C@]12C [Compound 433]
[1]
  Pharmacologic similarity in tadpole assay: functionally similar to compound 1437

## COC(=O)CC[C@@H](C)[C@H]1CC[C@H]2[C@@H]3CC[C@H]4C[C@H](NCCCNCCCCNCCCN)CC[C@]4(C)[C@H]3CC[C@]12C [Compound 458]
[1]
  Pharmacologic similarity in tadpole assay: pharmacologic activity similar to that seen for FX 3
HM
  minimal effective concentration: 6.8 µg/mL

## COC(=O)CC[C@@H](C)[C@H]1CC[C@H]2[C@@H]3CC[C@H]4C[C@@H](NCCCNCCCCNCCCN)CC[C@]4(C)[C@H]3CC[C@]12C [Compound 459]
[1]
  Pharmacologic similarity in tadpole assay: pharmacologic activity similar to that seen for FX 3
HM
  minimal effective concentration: 5 µg/mL

## COC(=O)CC[C@@H](C)[C@H]1CC[C@H]2[C@@H]3C[C@@H](O)[C@H]4C[C@H](NCCCNCCCCNCCCN)CC[C@]4(C)[C@H]3CC[C@]12C [Compound 465]
[1]
  Pharmacologic similarity in tadpole assay: pharmacologic activity similar to that seen for FX 3

## COC(=O)CC[C@@H](C)[C@H]1CC[C@H]2[C@@H]3C[C@@H](O)[C@H]4C[C@@H](NCCCNCCCCNCCCN)CC[C@]4(C)[C@H]3CC[C@]12C [Compound 466]
[1]
  Pharmacologic similarity in tadpole assay: pharmacologic activity similar to that seen for FX 3

## CC(C)CCC[C@@H](C)[C@H]1CC[C@H]2[C@@H]3[C@H](O)C[C@H]4C[C@H](N)CC[C@]4(C)[C@H]3CC[C@]12C [Compound 1363]
[1]
  Pharmacologic similarity in tadpole assay: potencies comparable to that of Fraction 1

## CN(C)c1nc(N)c(C(=O)N=C(N)N)nc1Cl [DMA, dimethylamiloride]
NHE1
  Ki: 100 nM
NHE3
  Ki: 11 µM
NHE2
  Ki: 700 nM

## CCCN(C)c1nc(N)c(C(=O)N=C(N)N)nc1Cl [MPA, methylpropylamiloride]
NHE1
  Ki: 80 nM
NHE3
  Ki: 10 µM
NHE2
  Ki: 5000 nM
